Experimental data reported in ChEMBL document CHEMBL1201862, “PubChem BioAssay data set” (2004).
Blank lines part the entries; values can stand above or below the compound they belong to. Activity calls are given as the source filed them.

How the values were obtained:
[1] = biological target: T1, Trace amine-associated receptor 1 (Homo sapiens, UniProt Q96RJ0); assay: Fluorescence-based cell-based high throughput dose response assay to identify agonists of the human trace amine associated receptor 1 (TAAR1).; format: functional
T1 sequence (Q96RJ0 whole entry): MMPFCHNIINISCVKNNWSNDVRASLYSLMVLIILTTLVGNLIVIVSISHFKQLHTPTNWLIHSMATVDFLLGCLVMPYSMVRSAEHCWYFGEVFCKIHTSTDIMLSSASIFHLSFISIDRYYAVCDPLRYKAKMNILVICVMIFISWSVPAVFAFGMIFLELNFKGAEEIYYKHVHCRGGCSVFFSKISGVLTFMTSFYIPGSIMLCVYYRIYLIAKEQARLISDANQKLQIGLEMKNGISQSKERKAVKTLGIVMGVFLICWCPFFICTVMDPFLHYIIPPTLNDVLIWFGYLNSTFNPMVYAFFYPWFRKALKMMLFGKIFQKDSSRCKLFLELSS

[2] = biological target: T1, Trace amine-associated receptor 1; assay: Counterscreen for agonists of the human trace amine associated receptor 1 (hTAAR1): Fluorescence-based cell-based high throughput dose response assay to identify hTAAR1 agonist that also desensitize TAAR1 receptor response.; format: functional
[3] = biological target: T2, Heat shock factor protein 1 (Mus musculus, UniProt P38532); assay: decrease of HSF1-responsive luciferase luminescence – cell-based, NIH3T3, dose retest, confirmation (AID 2382); format: functional;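 also: NIH3T3 fibroblasts with HSF1-driven luciferase reporter stressed by proteasome inhibitor MG132; luminescence from HSF1-driven luciferase expression after 8 hours of MG132 stress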
T2 sequence (P38532 whole entry): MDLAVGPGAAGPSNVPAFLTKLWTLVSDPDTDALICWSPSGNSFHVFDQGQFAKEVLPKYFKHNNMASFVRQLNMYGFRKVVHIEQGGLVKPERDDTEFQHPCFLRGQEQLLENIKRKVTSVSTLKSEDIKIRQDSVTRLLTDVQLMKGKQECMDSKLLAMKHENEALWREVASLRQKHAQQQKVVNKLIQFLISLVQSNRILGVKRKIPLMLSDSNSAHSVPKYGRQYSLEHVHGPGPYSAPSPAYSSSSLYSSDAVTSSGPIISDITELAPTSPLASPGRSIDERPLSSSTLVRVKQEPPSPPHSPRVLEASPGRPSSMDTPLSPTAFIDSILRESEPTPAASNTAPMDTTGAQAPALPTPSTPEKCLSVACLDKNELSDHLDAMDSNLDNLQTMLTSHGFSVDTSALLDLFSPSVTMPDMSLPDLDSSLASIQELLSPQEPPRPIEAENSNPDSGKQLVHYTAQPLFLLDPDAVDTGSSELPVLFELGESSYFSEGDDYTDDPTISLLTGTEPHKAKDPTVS

cells [4] = format: functional, cell-based
cells [5] = format: functional, cell-based; remark: listed apart in the source
Protein skinhead-1 = biological target: T3, Protein skinhead-1 (Caenorhabditis elegans, UniProt P34707); format: functional
T3 sequence (P34707 whole entry): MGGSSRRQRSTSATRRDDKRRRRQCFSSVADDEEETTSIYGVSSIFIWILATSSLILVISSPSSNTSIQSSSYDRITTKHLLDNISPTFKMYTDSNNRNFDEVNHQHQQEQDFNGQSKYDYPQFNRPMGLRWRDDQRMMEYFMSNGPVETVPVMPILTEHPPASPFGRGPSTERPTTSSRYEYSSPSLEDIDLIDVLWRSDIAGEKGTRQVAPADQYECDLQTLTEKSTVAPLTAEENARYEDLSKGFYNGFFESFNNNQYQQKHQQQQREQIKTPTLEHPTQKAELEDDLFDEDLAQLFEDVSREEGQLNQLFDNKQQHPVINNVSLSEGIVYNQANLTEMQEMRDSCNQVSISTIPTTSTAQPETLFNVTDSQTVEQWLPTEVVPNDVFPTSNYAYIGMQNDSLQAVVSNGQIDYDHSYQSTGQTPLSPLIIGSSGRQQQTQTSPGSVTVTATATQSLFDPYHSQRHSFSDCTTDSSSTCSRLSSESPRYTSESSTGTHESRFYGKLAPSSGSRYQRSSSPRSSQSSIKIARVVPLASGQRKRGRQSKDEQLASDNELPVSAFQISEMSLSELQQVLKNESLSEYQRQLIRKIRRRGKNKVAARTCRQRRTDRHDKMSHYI

Cytochrome P450 3A4 = Cytochrome P450 3A4 (Homo sapiens, UniProt P08684);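 also: CYP3A4 tested as one member of a cytochrome P450 panel screen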
Escherichia coli [6] = assay: microbe, parasite or virus in culture
Escherichia coli [7] = assay: microbe, parasite or virus in culture; remark: listed apart in the source
[8] = biological target: Dual specificity protein phosphatase 3 (Homo sapiens, UniProt P51452); assay: VHR phosphatase inhibition, dose response, selectivity assay for STEP inhibitor project, biochemical (AID 602374); format: functional; settings: read-out: IC50_Mean
[9] = biological target: T4, Tyrosine-protein phosphatase non-receptor type 5 (Homo sapiens, UniProt P54829); assay: PTPN5 enzyme inhibition – biochemical, fluorescence intensity, uHTS hits, confirmation (AID 602372); format: functional; settings: read-out: IC50_Mean
T4 sequence (P54829 whole entry): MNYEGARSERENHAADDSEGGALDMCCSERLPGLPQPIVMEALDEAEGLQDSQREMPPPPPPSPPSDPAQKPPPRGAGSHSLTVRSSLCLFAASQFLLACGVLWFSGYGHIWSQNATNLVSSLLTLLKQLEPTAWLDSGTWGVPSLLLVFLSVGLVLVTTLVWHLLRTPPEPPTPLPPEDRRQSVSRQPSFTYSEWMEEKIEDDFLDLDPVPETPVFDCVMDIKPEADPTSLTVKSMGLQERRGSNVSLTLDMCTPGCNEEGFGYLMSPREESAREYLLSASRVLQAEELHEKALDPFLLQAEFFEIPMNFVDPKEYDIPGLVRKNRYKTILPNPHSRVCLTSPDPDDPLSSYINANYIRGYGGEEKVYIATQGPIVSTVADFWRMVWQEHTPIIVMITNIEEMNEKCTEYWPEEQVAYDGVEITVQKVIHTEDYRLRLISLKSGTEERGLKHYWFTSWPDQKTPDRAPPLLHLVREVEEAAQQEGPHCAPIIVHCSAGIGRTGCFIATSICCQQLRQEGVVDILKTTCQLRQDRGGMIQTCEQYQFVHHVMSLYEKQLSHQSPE

[10] = biological target: T5, Tyrosine-protein phosphatase non-receptor type 11 (Homo sapiens, UniProt Q06124); assay: PTPN11 enzyme inhibitors – biochemical, selectivity assay for STEP inhibitor project, dose response (AID 602367); format: functional; settings: read-out: IC50_Mean
T5 sequence (Q06124 whole entry): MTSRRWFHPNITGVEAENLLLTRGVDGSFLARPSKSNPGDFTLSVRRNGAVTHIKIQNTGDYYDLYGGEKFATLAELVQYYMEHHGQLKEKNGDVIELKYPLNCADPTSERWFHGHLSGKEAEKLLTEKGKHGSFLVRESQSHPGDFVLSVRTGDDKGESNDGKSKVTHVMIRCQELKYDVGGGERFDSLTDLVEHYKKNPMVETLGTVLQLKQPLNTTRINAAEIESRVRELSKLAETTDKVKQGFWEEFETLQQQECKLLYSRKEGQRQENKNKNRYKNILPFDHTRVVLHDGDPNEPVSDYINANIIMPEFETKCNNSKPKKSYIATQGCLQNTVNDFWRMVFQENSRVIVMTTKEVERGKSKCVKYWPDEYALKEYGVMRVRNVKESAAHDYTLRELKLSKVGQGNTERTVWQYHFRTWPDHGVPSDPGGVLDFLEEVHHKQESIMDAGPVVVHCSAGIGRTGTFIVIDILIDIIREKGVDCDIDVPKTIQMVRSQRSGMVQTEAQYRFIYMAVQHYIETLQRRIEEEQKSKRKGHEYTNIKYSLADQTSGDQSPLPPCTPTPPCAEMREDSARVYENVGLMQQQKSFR

[11] = biological target: T6, Sentrin-specific protease 8 (Homo sapiens, UniProt Q96LD8); format: functional
T6 sequence (Q96LD8 whole entry): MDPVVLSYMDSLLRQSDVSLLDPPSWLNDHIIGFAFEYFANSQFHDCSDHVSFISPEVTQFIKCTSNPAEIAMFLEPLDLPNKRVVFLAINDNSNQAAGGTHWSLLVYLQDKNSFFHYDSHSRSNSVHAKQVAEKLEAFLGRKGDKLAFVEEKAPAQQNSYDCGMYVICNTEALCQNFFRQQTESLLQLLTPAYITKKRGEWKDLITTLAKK

[12] = biological target: T6, Sentrin-specific protease 8; format: functional; remark: listed apart in the source
[13] = viability loss in CEM21 cells – cell-based, CellTiter-Glo luminescence, cherry-picked, cytotoxicity control for viral fusion inhibitor project, dose response (AID 652042); format: functional;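 also: potency for signal decrease meaning cytotoxicity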
Cytochrome P450 2C9 = Cytochrome P450 2C9 (Homo sapiens, UniProt P11712)
Fatty acid synthase [14] = biological target: T7, Fatty acid synthase (Homo sapiens, UniProt P49327); assay: inhibition of human FAS-TE enzyme activity – biochemical, endpoint fluorescence intensity, uHTS hits, dose response (AID 624327); format: functional;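 also: fluorescence from hydrolysis of an O-methyl fluorescein acyl ester substrate by the enzyme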
Fatty acid synthase [15] = biological target: T7, Fatty acid synthase; assay: inhibition of human FAS-TE enzyme activity – biochemical, kinetic fluorescence intensity, dose response (AID 624326); format: functional;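 also: rate of fluorescence rise from hydrolysis of a fluorogenic O-methyl fluorescein ester substrate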

T7 sequence (P49327 whole entry): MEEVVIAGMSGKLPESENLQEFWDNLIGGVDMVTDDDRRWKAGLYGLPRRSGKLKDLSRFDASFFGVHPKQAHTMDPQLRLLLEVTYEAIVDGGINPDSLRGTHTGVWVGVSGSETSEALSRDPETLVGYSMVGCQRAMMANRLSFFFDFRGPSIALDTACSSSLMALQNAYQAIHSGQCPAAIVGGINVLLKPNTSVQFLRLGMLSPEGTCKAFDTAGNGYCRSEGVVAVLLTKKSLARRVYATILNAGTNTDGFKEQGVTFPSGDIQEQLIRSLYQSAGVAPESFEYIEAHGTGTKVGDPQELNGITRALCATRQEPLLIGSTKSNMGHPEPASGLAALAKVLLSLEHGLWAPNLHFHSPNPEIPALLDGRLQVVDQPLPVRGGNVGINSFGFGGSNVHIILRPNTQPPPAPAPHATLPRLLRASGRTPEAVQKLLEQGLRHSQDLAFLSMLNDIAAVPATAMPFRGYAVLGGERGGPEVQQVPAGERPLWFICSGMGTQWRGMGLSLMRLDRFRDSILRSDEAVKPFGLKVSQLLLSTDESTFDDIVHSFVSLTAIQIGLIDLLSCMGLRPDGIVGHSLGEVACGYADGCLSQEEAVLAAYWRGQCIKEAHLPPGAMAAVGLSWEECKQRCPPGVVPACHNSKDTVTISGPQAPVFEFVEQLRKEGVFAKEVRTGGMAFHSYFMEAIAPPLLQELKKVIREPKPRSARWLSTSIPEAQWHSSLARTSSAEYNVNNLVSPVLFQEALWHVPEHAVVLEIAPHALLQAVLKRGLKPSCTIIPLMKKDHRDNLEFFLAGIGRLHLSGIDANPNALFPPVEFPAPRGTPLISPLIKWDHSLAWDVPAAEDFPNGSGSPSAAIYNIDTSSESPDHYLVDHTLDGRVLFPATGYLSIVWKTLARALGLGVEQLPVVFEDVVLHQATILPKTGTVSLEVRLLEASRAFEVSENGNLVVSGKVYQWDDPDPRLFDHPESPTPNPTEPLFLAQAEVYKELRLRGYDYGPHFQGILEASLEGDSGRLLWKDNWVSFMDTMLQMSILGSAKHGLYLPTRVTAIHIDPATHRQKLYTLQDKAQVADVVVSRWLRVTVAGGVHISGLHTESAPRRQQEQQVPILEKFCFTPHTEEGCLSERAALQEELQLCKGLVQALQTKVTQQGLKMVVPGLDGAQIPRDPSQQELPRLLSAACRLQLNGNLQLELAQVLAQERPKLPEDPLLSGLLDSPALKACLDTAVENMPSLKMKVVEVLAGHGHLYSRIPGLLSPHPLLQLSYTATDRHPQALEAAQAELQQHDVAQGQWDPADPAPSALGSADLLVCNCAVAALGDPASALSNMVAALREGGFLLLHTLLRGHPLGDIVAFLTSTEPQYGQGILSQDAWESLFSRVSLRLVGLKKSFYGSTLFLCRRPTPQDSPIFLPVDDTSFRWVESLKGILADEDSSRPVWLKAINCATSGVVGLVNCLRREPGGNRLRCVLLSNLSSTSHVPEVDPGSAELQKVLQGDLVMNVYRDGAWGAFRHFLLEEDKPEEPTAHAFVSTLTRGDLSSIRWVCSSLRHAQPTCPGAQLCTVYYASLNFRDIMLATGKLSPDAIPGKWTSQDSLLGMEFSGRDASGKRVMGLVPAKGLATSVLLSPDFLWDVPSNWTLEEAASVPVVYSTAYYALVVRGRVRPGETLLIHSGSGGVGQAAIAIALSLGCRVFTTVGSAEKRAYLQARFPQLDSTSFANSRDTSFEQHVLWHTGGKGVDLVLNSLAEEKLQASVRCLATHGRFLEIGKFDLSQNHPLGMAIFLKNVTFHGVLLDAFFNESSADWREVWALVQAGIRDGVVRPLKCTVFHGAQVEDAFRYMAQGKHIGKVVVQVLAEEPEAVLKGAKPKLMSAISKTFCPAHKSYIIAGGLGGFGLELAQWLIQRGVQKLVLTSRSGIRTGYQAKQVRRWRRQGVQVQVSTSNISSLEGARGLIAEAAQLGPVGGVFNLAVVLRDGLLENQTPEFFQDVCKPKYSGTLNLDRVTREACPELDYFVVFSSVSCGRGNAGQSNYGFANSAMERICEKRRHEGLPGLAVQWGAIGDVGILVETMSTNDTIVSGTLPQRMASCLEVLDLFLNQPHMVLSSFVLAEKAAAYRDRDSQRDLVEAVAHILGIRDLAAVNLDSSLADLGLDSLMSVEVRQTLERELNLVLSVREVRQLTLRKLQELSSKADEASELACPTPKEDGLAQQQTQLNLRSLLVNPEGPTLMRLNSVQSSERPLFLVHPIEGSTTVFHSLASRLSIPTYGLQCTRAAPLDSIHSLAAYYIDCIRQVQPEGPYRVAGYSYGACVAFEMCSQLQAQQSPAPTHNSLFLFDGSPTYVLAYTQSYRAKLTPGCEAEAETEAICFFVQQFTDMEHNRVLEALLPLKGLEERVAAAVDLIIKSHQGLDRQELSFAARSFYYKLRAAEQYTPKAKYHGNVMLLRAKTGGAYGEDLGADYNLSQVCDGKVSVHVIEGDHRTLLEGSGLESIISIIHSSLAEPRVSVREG
Chain of Dual specificity protein phosphatase 3 (P51452 whole entry): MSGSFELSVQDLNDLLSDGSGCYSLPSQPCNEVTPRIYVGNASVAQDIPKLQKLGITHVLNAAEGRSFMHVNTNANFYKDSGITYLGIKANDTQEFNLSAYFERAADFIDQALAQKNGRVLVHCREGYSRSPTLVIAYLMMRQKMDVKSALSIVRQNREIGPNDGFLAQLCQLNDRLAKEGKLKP
Chain of Cytochrome P450 2C9 (P11712 whole entry): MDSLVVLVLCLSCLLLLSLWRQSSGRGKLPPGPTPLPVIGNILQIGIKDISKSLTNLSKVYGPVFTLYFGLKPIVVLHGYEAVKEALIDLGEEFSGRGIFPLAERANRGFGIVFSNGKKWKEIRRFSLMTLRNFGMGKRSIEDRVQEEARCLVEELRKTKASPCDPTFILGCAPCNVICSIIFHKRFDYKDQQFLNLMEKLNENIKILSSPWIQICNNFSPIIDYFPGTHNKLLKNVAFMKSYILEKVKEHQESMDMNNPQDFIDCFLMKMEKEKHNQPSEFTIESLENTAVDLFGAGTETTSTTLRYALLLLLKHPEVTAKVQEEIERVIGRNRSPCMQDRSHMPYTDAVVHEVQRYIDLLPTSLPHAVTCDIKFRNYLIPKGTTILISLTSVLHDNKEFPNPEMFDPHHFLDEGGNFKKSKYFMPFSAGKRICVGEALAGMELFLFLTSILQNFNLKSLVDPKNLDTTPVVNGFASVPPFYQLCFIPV
Chain of Cytochrome P450 3A4 (P08684 whole entry): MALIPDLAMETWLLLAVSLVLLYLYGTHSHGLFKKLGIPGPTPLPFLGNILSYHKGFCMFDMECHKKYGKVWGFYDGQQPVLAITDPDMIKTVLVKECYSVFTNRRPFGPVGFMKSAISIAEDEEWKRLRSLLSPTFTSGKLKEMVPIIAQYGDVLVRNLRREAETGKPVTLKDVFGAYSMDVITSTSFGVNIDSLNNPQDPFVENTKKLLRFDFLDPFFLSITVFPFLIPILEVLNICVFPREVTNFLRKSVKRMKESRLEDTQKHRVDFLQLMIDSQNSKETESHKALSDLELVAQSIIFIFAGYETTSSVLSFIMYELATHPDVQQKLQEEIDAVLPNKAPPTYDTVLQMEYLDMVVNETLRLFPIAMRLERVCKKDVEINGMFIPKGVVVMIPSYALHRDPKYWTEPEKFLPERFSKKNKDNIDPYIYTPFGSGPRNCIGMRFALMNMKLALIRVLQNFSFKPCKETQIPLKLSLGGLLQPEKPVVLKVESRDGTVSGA

Structure (SMILES): N=C(N)SCc1ccccc1Cl
EC50 [1]: 1.42 µM (active)
IC50 [2]: 5.21 µM (active)
EC50 [3]: 121 µM (active)
IC50 (cells [4]): > 29.9 µM (inactive)
EC50 (cells [5]): > 29.9 µM (inactive)

Structure (SMILES): O=C(c1ccccc1)N1CCN(c2ccc([N+](=O)[O-])c(NCC3CCCO3)c2)CC1 (stereo unspecified)
AC50 (Escherichia coli [6]): 40.2 µM (active)
AC50 (Escherichia coli [7]): 105 µM (active)

Structure (SMILES): O=C(NC1CC1)C1CCN(C2CCN(C(=O)Cc3ccc(F)cc3)CC2)CC1
AC50 (Escherichia coli [6]): 50 µM (active)
AC50 (Escherichia coli [7]): 26.8 µM (active)

Structure (SMILES): O=C1Cc2ccccc2C(=O)N1OCc1ccc(Cl)cc1
IC50 [11]: 11.8 µM (active)
IC50 [12]: 11 µM (active)

Structure (SMILES): C=CCOc1c(Br)cc(CNc2ccc(NC(=O)C(C)C)c(OC)c2)cc1OC
AC50 [13]: 63.1 µM (active)
AC50 (Cytochrome P450 2C9): 0.00562 µM (inconclusive)

Now from value to compound:

IC50 (Protein skinhead-1): > 100 µM (inactive)
AC50 (Cytochrome P450 3A4): inconclusive
Structure (SMILES): CSc1ccc(NC(=O)NCCCN2CCN(c3ccccc3F)CC2)cc1

IC50 [8]: 1.42 µM (active)
IC50 [9]: 24.6 µM (inactive)
IC50 [10]: 3.9 µM (active)
Structure (SMILES): CCOc1ccc(C(=S)N2CCN(C)CC2)cc1

IC50 (Protein skinhead-1): > 100 µM (inactive)
Structure (SMILES): C[C@@H]1C=C[C@](Cc2ccccc2)(C(=O)NCC2CC2)N1C(=O)c1ccccc1

IC50 [8]: 3.44 µM (active)
IC50 [9]: > 80 µM (inactive)
IC50 [10]: 17.9 µM (active)
Structure (SMILES): CC(=O)N1CCC(N(CCN2CCOCC2)C(=S)Nc2ccc(C)cc2)CC1

IC50 (Fatty acid synthase [14]): 2.18 µM (active)
IC50 (Fatty acid synthase [15]): 1.64 µM (active)
Structure (SMILES): CC(NC(=O)Nc1cccc([N+](=O)[O-])c1)c1ccc2c(c1)OCO2 (stereo unspecified)

IC50 (Fatty acid synthase [14]): 1.1 µM (active)
IC50 (Fatty acid synthase [15]): 0.778 µM (active)
Structure (SMILES): O=C(COc1cc([N+](=O)[O-])cc2cccnc12)NCCC1=CCCCC1
